# Literature values as cited in patent publication US20200009266A1, “IN VIVO GENE THERAPY FOR IMMUNE DEFICIENCIES” (priority 2017, published 2020).
# How the values were obtained:
# circulating CD34+ cells = conditions: AMD3100 alone, adult dogs
# [1] = test system: peripheral blood lymphocytes; conditions: rhesus macaques
smiles,measurement,setting,value
c1cc(CN2CCCNCCNCCCNCC2)ccc1CN1CCCNCCNCCCNCC1 [AMD3100],time of peak mobilization post treatment,circulating CD34+ cells,8 to 10 h
same,tolerability of treatment,circulating CD34+ cells,well tolerated
same,lymphocyte numbers in peripheral blood,[1],increased numbers of B and T lymphocytes
